For this assay, the target named is human PDE10A (Homo sapiens (Human), UniProt Q9Y233). Kind of assay: human PDE10A full length Scintillation Proximity Assay (SPA). The following applies: 50 nM cGMP and 50 nM [3H]-cGMP, 20 minutes at room temperature; read-out: PDE10A inhibition IC50. In kind it is biochemical. On the procedure: The following test was carried out in order to determine the activity of the compounds of the present invention.
The human PDE10A full length assay was performed in 96-well micro titer plates. […] Non-specific activity was tested without the enzyme. The reaction was initiated by the addition of the substrate solution (cGMP and [^3H]-cGMP) and allowed to progress for 20 minutes at room temperature. The reaction was terminated by adding 25 μl of YSi-SPA scintillation beads (GE Healthcare, cat. # RPNQ0150) in 18 mM zinc sulphate solution (stop reagent). After 1 h under shaking, the plate was centrifuged one minute at 170 g to allow beads to settle. Afterwards, radioactive counts were measured on a Perkin Elmer TopCount Scintillation plate reader.

Sequence of human PDE10A (Q9Y233 other isoform, or with tags, fused parts or gaps): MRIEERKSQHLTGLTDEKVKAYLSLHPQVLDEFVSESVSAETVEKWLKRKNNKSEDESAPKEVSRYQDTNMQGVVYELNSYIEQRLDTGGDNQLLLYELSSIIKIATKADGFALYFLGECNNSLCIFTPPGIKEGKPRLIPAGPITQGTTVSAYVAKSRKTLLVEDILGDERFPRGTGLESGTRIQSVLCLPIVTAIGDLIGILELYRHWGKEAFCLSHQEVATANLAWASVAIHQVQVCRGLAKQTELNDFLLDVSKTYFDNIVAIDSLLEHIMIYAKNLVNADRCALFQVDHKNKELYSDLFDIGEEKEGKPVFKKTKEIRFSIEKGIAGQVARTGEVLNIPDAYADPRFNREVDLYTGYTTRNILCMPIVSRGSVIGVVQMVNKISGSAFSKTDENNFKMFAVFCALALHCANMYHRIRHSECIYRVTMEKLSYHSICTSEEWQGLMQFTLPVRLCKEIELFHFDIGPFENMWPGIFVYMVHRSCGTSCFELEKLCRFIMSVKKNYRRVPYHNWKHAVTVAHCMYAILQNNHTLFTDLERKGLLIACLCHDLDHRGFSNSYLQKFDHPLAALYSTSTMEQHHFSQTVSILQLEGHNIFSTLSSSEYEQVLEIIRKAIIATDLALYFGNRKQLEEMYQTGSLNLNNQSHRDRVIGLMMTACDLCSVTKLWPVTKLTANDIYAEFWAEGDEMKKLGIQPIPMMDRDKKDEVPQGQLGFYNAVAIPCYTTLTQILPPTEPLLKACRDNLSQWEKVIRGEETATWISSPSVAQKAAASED

As for `CCn1ncc(NC(=O)c2nc(C3CC3)cnc2Nc2cncnc2)c1C(=O)N(C)C` [Example 169, 6-Cyclopropyl-3-(pyrimidin-5-ylamino)-pyrazine-2-carboxylic acid (5-dimethylcarbamoyl-1-ethyl-1H-pyrazol-4-yl)-amide], the IC50 was determined as 22.3 nM.

Regarding `CC(C)(O)CNC(=O)c1ccncc1NC(=O)c1nc(C2CC2)cnc1Nc1cncnc1` [Example 105, 6-Cyclopropyl-3-(pyrimidin-5-ylamino)-pyrazine-2-carboxylic acid [4-(2-hydroxy-2-methyl-propylcarbamoyl)-pyridin-3-yl]-amide], the IC50 was 1.1 nM.

For the compound `CNC(=O)c1nc(-c2ccccn2)sc1NC(=O)c1nc(C2CC2)ccc1Nc1cncnc1` [Example 65, 6-Cyclopropyl-3-(pyrimidin-5-ylamino)-pyridine-2-carboxylic acid (4-methylcarbamoyl-2-pyridin-2-yl-thiazol-5-yl)-amide], the IC50 came to 1.4 nM.

Turning to `Cc1ccc(NC(=O)c2nc(C3CC3)cnc2Nc2cncnc2)c(C(=O)N2CCC2)n1` [Example 278, 6-Cyclopropyl-3-(pyrimidin-5-ylamino)-pyrazine-2-carboxylic acid [2-(azetidine-1-carbonyl)-6-methyl-pyridin-3-yl]-amide], the IC50 stood at 1.9 nM.

Turning to `CC(CO)NC(=O)c1nn(C)cc1NC(=O)c1nc(C2CC2)ccc1Nc1cncnc1` (stereo not shown) [Example 45, 6-Cyclopropyl-3-(pyrimidin-5-ylamino)-pyridine-2-carboxylic acid [3-(2-hydroxy-1-methyl-ethylcarbamoyl)-1-methyl-1H-pyrazol-4-yl]-amide], the IC50 came out at 17.1 nM.

In the case of `CN(C(=O)c1nn(C)cc1NC(=O)c1nc(C2CC2)ccc1Nc1cncnc1)C1CCCCC1` [Example 17, 6-Cyclopropyl-3-(pyrimidin-5-ylamino)-pyridine-2-carboxylic acid [3-(cyclohexyl-methyl-carbamoyl)-1-methyl-1H-pyrazol-4-yl]-amide], the IC50 is 12.6 nM.

Consider `Cn1cc(NC(=O)c2nc(C3CC3)ccc2Nc2cncnc2)c(C(=O)NCC(C)(C)O)n1` [Example 43, 6-Cyclopropyl-3-(pyrimidin-5-ylamino)-pyridine-2-carboxylic acid [3-(2-hydroxy-2-methyl-propylcarbamoyl)-1-methyl-1H-pyrazol-4-yl]-amide], for which the IC50 was determined as 3.1 nM.

As for `CC(C)(O)CNC(=O)c1c(NC(=O)c2nc(C3CC3)cnc2Nc2cncnc2)cnn1CCC(F)(F)F` [Example 172, 6-Cyclopropyl-3-(pyrimidin-5-ylamino)-pyrazine-2-carboxylic acid [5-(2-hydroxy-2-methyl-propylcarbamoyl)-1-(3,3,3-trifluoro-propyl)-1H-pyrazol-4-yl]-amide], the IC50 was determined as 12.9 nM.

As to `CC(C)c1ncc(Nc2cncnc2)c(C(=O)Nc2cccnc2C(=O)NCC(C)(C)O)n1` [Example 329, 2-Isopropyl-5-(pyrimidin-5-ylamino)-pyrimidine-4-carboxylic acid [2-(2-hydroxy-2-methyl-propylcarbamoyl)-pyridin-3-yl]-amide], the IC50 worked out at 2.9 nM.

For `Cn1cc(NC(=O)c2nc(C3CC3)cnc2Nc2cncnc2)c(C(=O)NCC(C)(C)O)n1` [Example 95, 6-Cyclopropyl-3-(pyrimidin-5-ylamino)-pyrazine-2-carboxylic acid [3-(2-hydroxy-2-methyl-propylcarbamoyl)-1-methyl-1H-pyrazol-4-yl]-amide], the IC50 is 1.8 nM.

Take `CN(CCO)C(=O)c1ccncc1NC(=O)c1nc(C2CC2)ccc1Nc1cncnc1` [Example 73, 6-Cyclopropyl-3-(pyrimidin-5-ylamino)-pyridine-2-carboxylic acid {4-[(2-hydroxy-ethyl)-methyl-carbamoyl]-pyridin-3-yl}-amide]: the IC50 turned out to be 18.9 nM.

As for `Cn1cc(NC(=O)c2nc(C3CC3)ccc2Nc2cncnc2)c(C(=O)N2CC(O)C2)n1` [Example 50, 6-Cyclopropyl-3-(pyrimidin-5-ylamino)-pyridine-2-carboxylic acid [3-(3-hydroxy-azetidine-1-carbonyl)-1-methyl-1H-pyrazol-4-yl]-amide], the IC50 was 31.7 nM.

Consider `CCn1ncc(NC(=O)c2nc(C3CC3)cnc2Nc2cncnc2)c1C(=O)NCC1CCCO1` (stereo not shown) [Example 233, 6-Cyclopropyl-3-(pyrimidin-5-ylamino)-pyrazine-2-carboxylic acid {1-ethyl-5-[(tetrahydro-furan-2-ylmethyl)-carbamoyl]-1H-pyrazol-4-yl}-amide], for which the IC50 was 24.9 nM.

Turning to `CC(C)(O)CNC(=O)c1c(F)cc(F)cc1NC(=O)c1nc(C2CC2)cnc1Nc1cncnc1` [Example 324, 6-Cyclopropyl-3-(pyrimidin-5-ylamino)-pyrazine-2-carboxylic acid [3,5-difluoro-2-(2-hydroxy-2-methyl-propylcarbamoyl)-phenyl]-amide], the IC50 was determined as 1.1 nM.

`Cn1ncc(NC(=O)c2nc(C3CC3)cnc2Nc2cncnc2)c1C(=O)NCC1CCCO1` (stereo not shown) [Example 232, 6-Cyclopropyl-3-(pyrimidin-5-ylamino)-pyrazine-2-carboxylic acid {1-methyl-5-[(tetrahydro-furan-2-ylmethyl)-carbamoyl]-1H-pyrazol-4-yl}-amide]: the IC50 amounted to 4 nM.

Turning to `O=C(NC1CC1)c1ccsc1NC(=O)c1nc(C2CC2)ccc1Nc1cncnc1` [Example 89, 6-Cyclopropyl-3-(pyrimidin-5-ylamino)-pyridine-2-carboxylic acid (3-cyclopropylcarbamoyl-thiophen-2-yl)-amide], the IC50 came out at 0.5 nM.

With `CNC(=O)c1nc(-c2ccccc2)sc1NC(=O)c1nc(C2CC2)ccc1Nc1cncnc1` [Example 64, 6-Cyclopropyl-3-(pyrimidin-5-ylamino)-pyridine-2-carboxylic acid (4-methylcarbamoyl-2-phenyl-thiazol-5-yl)-amide], the IC50 came out at 1110 nM.

Turning to `Cn1ncc(NC(=O)c2nc(C3CC3)cnc2Nc2cncnc2)c1C(=O)NC1CCCC1O` (stereo not shown) [Example 336, 6-Cyclopropyl-3-(pyrimidin-5-ylamino)-pyrazine-2-carboxylic acid [5-(2-hydroxy-cyclopentylcarbamoyl)-1-methyl-1H-pyrazol-4-yl]-amide], the IC50 amounted to 5.3 nM.

Take `O=C(NC1CCC1)c1ccncc1NC(=O)c1nc(C2CC2)ccc1Nc1cncnc1` [Example 58, 6-Cyclopropyl-3-(pyrimidin-5-ylamino)-pyridine-2-carboxylic acid (4-cyclobutylcarbamoyl-pyridin-3-yl)-amide]: the IC50 was found to be 1.1 nM.

As to `CNC(=O)c1cc(CCC(=O)O)ccc1NC(=O)c1nc(C2CC2)cnc1Nc1cncnc1` [Example 328, 3-(4-{[6-Cyclopropyl-3-(pyrimidin-5-ylamino)-pyrazine-2-carbonyl]-amino}-3-methylcarbamoyl-phenyl)-propionic acid], the IC50 was determined as 0.4 nM.

Turning to `COCCn1cc(NC(=O)c2nc(C3CC3)ccc2Nc2cncnc2)c(C(=O)N(C)C)n1` [Example 4, 6-Cyclopropyl-3-(pyrimidin-5-ylamino)-pyridine-2-carboxylic acid [3-dimethylcarbamoyl-1-(2-methoxy-ethyl)-1H-pyrazol-4-yl]-amide], the IC50 is 124 nM.

`CCn1cc(NC(=O)c2nc(C3CC3)cnc2Nc2cncnc2)c(C(=O)NC)n1` [Example 107, 6-Cyclopropyl-N-(1-ethyl-3-(methylcarbamoyl)-1H-pyrazol-4-yl)-3-(pyrimidin-5-ylamino)pyrazine-2-carboxamide]: the IC50 came out at 117 nM.

In general, IC50 refers to the concentration that inhibits the measured activity by half.

For the origin of these results see patent publication US8703768B2, “Nitrogen containing heteroaryl compounds” (Hoffmann-La Roche Inc., priority 2010, dated 2014).
